Eleven molecules from patent US20220177490A1, “COMPOUNDS HAVING BOTH EFFECTS OF BET BROMODOMAIN PROTEIN INHIBITION AND PD-L1 GENE REGULATION” (priority 2019, published 2022) can be followed below.

One data set has as its target T1, BRD4-1 (BRD4 BD1) (Homo sapiens, UniProt O60885).
T1 construct: BRD4 (BD1, BD2)
Nature of the data set: AlphaScreen binding assay of BRD4 biochemical activity (BD1). Particulars: BD1, first value of cell; 10 concentrations, single well, initial 10 μM, 3-fold dilution. The procedure:
(§1) Test 1: IC50 characterization of the compounds at 10 concentrations.
(§2) The compounds were evaluated for IC50 against two BRD (BRD4-1, BRD4-2) at 10 concentrations, single well.
(§3) Buffer composition for BRD: 50 mM HEPES-HCl, pH7.5, 100 mM NaCl, 0.1% BSA, 0.05% CHAPS, and 1% DMSO.
(§4) Assay: AlphaScreen binding assay (Ex/Em=680/520-620 nm)
(§5) 2.1 4×BRD was added into wells of a reaction plate, except for control wells without BRD, in which BRD was replaced with a buffer.
(§6) 2.2 A solution of the compounds in 100% DMSO was added to the BRD mixture using Acoustic Technology (Echo550, nanoliter level). The mixture was centrifuged, shaken gently at room temperature, and pre-incubated for 30 minutes.
(§7) 2.3 4× ligand was added, and the mixture was centrifuged and shaken.
(§8) 2.4 The mixture was shaken gently and incubated at room temperature for 30 minutes.
(§9) 2.5 4× donor beads were added in the dark, and the mixture was centrifuged and shaken.
(§10) 2.6 4× acceptor beads were added in the dark, and the mixture was centrifuged and shaken gently in the dark for 60 minutes.
(§11) 2.7 The Alpha assay was carried out using Enspire (Ex/Em=680/520-620 nm)
(§12) The four-parameter fitting was performed by GraphPadPrism4 software using the following formula to obtain an IC50 fitting curve:
(§13) Y=minimum+(maximum−minimum)/(1+10^((Log IC50−X)*HillSplope))
(§14) Prism settings: 4-parameter dose-response curve (with variable slope), constrained; minimum=0, maximum=less than 120
(Alpha assays give light when donor and acceptor beads are brought close together.)

The next data set deals with T2, BRD4-2 (BRD4 BD2) (Homo sapiens, UniProt O60885).
T2 construct: BRD4 (BD1, BD2)
Nature of the data set: AlphaScreen binding assay of BRD4 biochemical activity (BD2). Particulars: BD2, second value of cell; 10 concentrations, single well, initial 10 μM, 3-fold dilution. The procedure:
as §1, §2, §3, §4, §5, §6, §7, §8, §9, §10, §11, §12, §13, §14

The subject of data set [1] is EMT-6 mouse breast cancer cell line. Nature of the data set: Anti-tumor activity in EMT-6 in vivo tumor model. Particulars: EMT-6 model, BALB/C mice, 30 mg/kg intragastrically. The procedure:
The anti-tumor effect of the test compound was investigated on an in vivo tumor model of mouse breast cancer EMT-6.
Female BALB/C mice were subcutaneously inoculated with an EMT-6 mouse breast cancer cell line, grouped according to body weight and tumor volume on the 8th day after inoculation, and administered as described below.
(§15) Group 1 (control group): Vehicle control was administered intragastrically at a dose of 0.1 mL/10 g body weight twice a day.
(§16) Group 2: Compound 4 dissolved in (5% DMSO+40% PEG 400+10% Solutol+45% DDH2O) was administered intragastrically at a dose of 30 mg/kg body weight.
During the assay, the body weight and tumor volume of mice were measured three times a week, and the tumor volume was calculated according to the formula of length×width^2/2. The tumor proliferation rate and tumor inhibition rate were calculated according to the formula: tumor proliferation rate=tumor volume of treatment group/tumor volume of control group×100%; tumor inhibition rate=(tumor volume of control group-tumor volume of treatment group)/tumor volume of control group.
(§17) Student's t-test was used for statistical analysis between groups, and p<0.05 indicated significant difference.

Data set [2] has as its system Mouse colon cancer MC38 cells. Nature of the data set: In vivo efficacy in transplanted tumor model of MC38 mouse colon cancer cells. Particulars: C57BL/6 mice, 18 days of administration. The procedure:
Mouse colon cancer MC38 cells (Art. No. HYC3401) were cultured in vitro in single layer under the conditions of DMEM containing 10% fetal bovine serum and 37° C. 5% CO2 incubator. Trypsin-EDTA was used for routine digestion and passage. When the cells were in exponential growth phase and the saturation was 80%-90%, the cells were collected and counted.
Cells were re-suspended in DPBS at a density of […]. 0.1 mL DPBS (containing 2×10^5 MC38 cells) was subcutaneously inoculated into the right back of each mouse. When average tumor volume reached ˜63 mm^3, mice were randomly grouped and administered according to tumor volume.
Tumor diameter was measured with vernier caliper three times a week. The calculation formula of tumor volume was as follows: V=0.5×a×b^2, wherein a and b indicated the long and short diameters of a tumor, respectively.
The anti-tumor effect of the compounds was evaluated using TGI (%) or relative tumor proliferation rate T/C (%). Relative tumor proliferation rate T/C (%)=TRTV;/CRTV×100 (TRTV: average RTV for treatment group; CRTV: average RTV for negative control group). According to the results of tumor measurement, relative tumor volume (RTV) was calculated using the formula: RTV=Vt/V0, wherein V0 is the tumor volume measured when grouped and administered (i.e., D0), Vt is the tumor volume at a certain measurement, and the data of TRTV and CRTV on the same day were used.
TGI (%) reflects the rate of tumor growth inhibition. TGI (%)=[(1−(Average tumor volume at the end of administration for a treatment group−Average tumor volume at the beginning of administration for the treatment group))/(Average tumor volume at the end of treatment for a vehicle control group-Average tumor volume at the beginning of treatment for the vehicle control group)]×100.
Statistical analysis was performed using SPSS software based on the relative tumor volume and tumor weight at the end of the test. T-test was used for comparison between two groups and one-way ANOVA was used for comparison among three or more groups. If variance was not neat (significant difference was found in F value), Games-Howell method was used for test. P<0.05 was considered a significant difference.

The subject of data set [3] is PAN02 mouse pancreatic cancer cell line. Description: In vivo efficacy in PAN02 tumor model. To be noted: C57BL/6 mice, 30 mg/kg intragastrically, day 32. The procedure:
The anti-tumor effect of the test compound was investigated on an in vivo tumor model of mouse pancreatic cancer PAN02.
Female C57BL/6 mice were subcutaneously inoculated with PAN02 mouse pancreatic cancer cell line, grouped according to body weight and tumor volume on the 8th day after inoculation, and administered as described below.
as §15, §16
During the assay, the body weight and tumor volume of mice were measured three times a week, and the tumor volume was calculated according to the formula of length×width^2/2. The tumor proliferation rate and tumor inhibition rate were calculated according to the formula: tumor proliferation rate=tumor volume of treatment group/tumor volume of control group×100%; tumor inhibition rate=(tumor volume of control group−tumor volume of treatment group)/tumor volume of control group.
as §17

A short description of data set [4]: Pharmacokinetic study in male CD-1 mice, LC/MS/MS of plasma. To be noted: mouse; for Vd: read-out: Apparent volume of distribution Vdss; for AUC(0-inf): read-out: Area under curve (0-inf) AUC0-inf; for AUC(0-t): read-out: Area under curve (0-t) AUC0-last; for clearance: read-out: Clearance rate Cl; for half-life: read-out: Half life period T½ (converted); for Cmax: read-out: Drug concentration in blood Cmax; for Tmax: read-out: Peak arrival time Tmax; for bioavailability: read-out: bioavailability F. The format is in vivo. The procedure: 1.1 Male CD-1 mice were used as test animals, and the LC/MS/MS method was used to determine the drug concentration in plasma of mice at different times after intravenous and intragastric administration of the test compounds. The pharmacokinetic behavior of the compounds of the present disclosure in mice was studied, and the pharmacokinetic characteristics of the compounds of the present disclosure were evaluated.
2.2 Assay animals: Eight healthy adult male CD-1 mice, which were divided into four groups (two for each group) according to the principle of similar body weight. The animals were purchased from Shanghai Sippe-Bk Lab Animal Co., Ltd., with animal production license No. of SCXK (Shanghai) 2018-0006.
A proper amount of samples were weighed, to which a solvent was added. The mixture was stirred with ultrasound to a clear state for intravenous administration.
A proper amount of samples were weighed, to which a solvent was added. The mixture was stirred with ultrasound to a clear state for intragastric administration.
Eight male CD-1 mice were divided into four groups. After one-night fasting, two groups were administered intravenously, and the remaining two groups were administered intragastrically.
After intravenous administration of the test compounds to male CD-1 mice, […] of blood was collected at 0.0833, 0.25, 0.5, 1, 2, 4, 8, and 24 hours, and placed in commercial tubes containing EDTA-K2. After intragastric administration of the test compounds, […] of blood was collected at 0.25, 0.5, 1, 2, 4, 6, 8, and 24 hours, and placed in commercial tubes containing EDTA-K2. The tubes were centrifuged at 3000 g for 15 minutes to separate plasma and stored at −60° C. Animals were fed 2 hours after the administration.
The LC/MS/MS method was used to determine the content of the test compounds in the plasma of mice after intravenous and intragastric administration. The linear range of the method was 2.00-6000 nmol/L; The plasma samples were analyzed after protein precipitation with acetonitrile.

Read-outs that look alike come from different tables or passages of the source.

For `Cc1sc2c(c1C)C(c1ccc(Cl)cc1)=N[C@@H](CC(=O)Nc1ccc3c(c1)Cn1ccnc1-3)c1nnc(C)n1-2` [Compound 12], the figures for the IC50 on BRD4-1 (BRD4 BD1) and at BRD4-2 (BRD4 BD2) were 18.1 nM and 1.99 nM, respectively.

Consider `Cc1sc2c(c1C)C(c1ccc(Cl)cc1)=N[C@@H](CC(=O)Nc1ccc3c(c1)CO/C3=N\O)c1nnc(C)n1-2` [Compound 1], for which the IC50 on BRD4-1 (BRD4 BD1) was 48.8 nM; on BRD4-2 (BRD4 BD2), 7.4 nM.

For `Cc1sc2c(c1C)C(c1ccc(Cl)cc1)=N[C@@H](CC(=O)Nc1ccc3c(c1)CO/C3=N\N(C)C)c1nnc(C)n1-2` [Compound 13], the IC50 was determined as 13.1 nM on BRD4-1 (BRD4 BD1) and 2.26 nM on BRD4-2 (BRD4 BD2).

Regarding `Cc1sc2c(c1C)C(c1ccc(Cl)cc1)=N[C@@H](CC(=O)Nc1ccc3c(c1)CO/C3=N\OC(C)C)c1nnc(C)n1-2` [Compound 8], the IC50 was 85.7 nM at BRD4-1 (BRD4 BD1) and 15 nM at BRD4-2 (BRD4 BD2).

As for `CO/N=C1\OCc2cc(NC(=O)C[C@@H]3N=C(c4ccc(Cl)cc4)c4c(sc(C)c4C)-n4c(C)nnc43)ccc21` [Compound 4], in data set [1] (Day 19), the tumor proliferation rate turned out to be 23.92%. For the same molecule, the tumor proliferation rate in data set [1] (end of the assay) was determined as 36.79%. This molecule also returned an IC50 on BRD4-1 (BRD4 BD1) of 28 nM. In addition, the TGI in data set [2] (20 mpk p.o. BID) was determined as 85.90%. This molecule had a TGI in data set [2] (50 mpk p.o. BID) of 97.66%. The same molecule registered an IC50 at BRD4-2 (BRD4 BD2) of 6.6 nM. Also, the tumor proliferation rate in data set [3] was 37.61%. Besides, in data set [4] (intravenous, 1 mg/kg), the Vd came out at 1.84 L/kg, the AUC(0-inf) was 2.91 µM·h, the AUC(0-t) came to 2.71 µM·h and the clearance amounted to 10.2 mL/min/kg. Besides, the half-life in data set [4] (intravenous, 1 mg/kg) was 2.05 h. In data set [4] (po, intragastric, 2 mg/kg), the AUC(0-t) was 1.61 µM·h, the Cmax came to 262 nM, the time to peak (Tmax) amounted to 4 h and the bioavailability stood at 29.6%.

`Cc1sc2c(c1C)C(c1ccc(Cl)cc1)=N[C@@H](CC(=O)Nc1ccc3c(c1)CO/C3=N\OC(F)F)c1nnc(C)n1-2` [Compound 11] had an IC50 on BRD4-1 (BRD4 BD1) of 72.2 nM. Also, the TGI in data set [2] (20 mpk p.o. BID) was found to be 54.16%. The TGI in data set [2] (50 mpk p.o. BID) amounted to 84.11%. For the same molecule, the IC50 on BRD4-2 (BRD4 BD2) was 3.92 nM. For the same molecule, in data set [4] (intravenous, 1 mg/kg), the Vd came out at 2.21 L/kg, the AUC(0-inf) is 2.44 µM·h, the AUC(0-t) stood at 2.26 µM·h and the clearance came to 11.5 mL/min/kg. The half-life in data set [4] (intravenous, 1 mg/kg) was 2.16 h. In data set [4] (po, intragastric, 2 mg/kg), the AUC(0-t) is 1.31 µM·h, the Cmax amounted to 115 nM, the Tmax was 7 h and the bioavailability was determined as 29%.

For `Cc1sc2c(c1C)C(c1ccc(Cl)cc1)=N[C@@H](CC(=O)Nc1ccc3c(c1)CO/C3=N\C#N)c1nnc(C)n1-2` [Compound 2], the IC50 turned out to be 48.2 nM at BRD4-1 (BRD4 BD1) and 6.23 nM at BRD4-2 (BRD4 BD2).

As to `COCCO/N=C1\OCc2cc(NC(=O)C[C@@H]3N=C(c4ccc(Cl)cc4)c4c(sc(C)c4C)-n4c(C)nnc43)ccc21` [Compound 10], the IC50 at BRD4-1 (BRD4 BD1) is 27 nM; on BRD4-2 (BRD4 BD2), 3.56 nM.

As for `Cc1sc2c(c1C)C(c1ccc(Cl)cc1)=N[C@@H](CC(=O)Nc1ccc3c(c1)CO/C3=N\C1COC1)c1nnc(C)n1-2` [Compound 7], the results for the IC50 at BRD4-1 (BRD4 BD1) and on BRD4-2 (BRD4 BD2) were 28.7 nM and 6.06 nM, respectively.

On to `Cc1sc2c(c1C)C(c1ccc(Cl)cc1)=N[C@@H](CC(=O)Nc1ccc3c(c1)CC1CON=C31)c1nnc(C)n1-2` (some centres unmarked) [Compound 3], for which the results for the IC50 at BRD4-1 (BRD4 BD1) and on BRD4-2 (BRD4 BD2) were 27 nM and 4.45 nM, respectively.

In the case of `CCO/N=C1\OCc2cc(NC(=O)C[C@@H]3N=C(c4ccc(Cl)cc4)c4c(sc(C)c4C)-n4c(C)nnc43)ccc21` [Compound 9], the IC50 on BRD4-1 (BRD4 BD1) came to 43.6 nM; on BRD4-2 (BRD4 BD2), 7 nM.

In general, IC50 refers to the concentration at which inhibition is half-maximal. Read a high IC50 as weaker potency. The term TGI denotes how far tumour growth fell short of that in controls. A low value points to a weaker effect on the tumour. A word on the clearance: it is the rate of elimination divided by the concentration. By half-life is commonly meant the time in which the quantity being followed falls by half. Usually Tmax stands for the time from dosing to the highest level. In general, bioavailability refers to dose-corrected exposure relative to a reference, in per cent.
